This note sets out measurements from patent US9452980B2, “Substituted benzamides” (Hoffmann-La Roche Inc., priority 2009, dated 2016).

One test concerns the target rat TAAR1 (Rattus norvegicus (Rat), UniProt Q923Y9). The test is described as follows: Radioligand binding assay on rat TAAR1. The note with it: read-out: Ki (μM) rat. The method, boiled down:
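Membranes from HEK293 cells stably expressing rat TAAR1, with Kd checked per batch by saturation. Competition with ³H-(S)-4-[(ethyl-phenyl-amino)-methyl]-4,5-dihydro-oxazol-2-ylamine, compounds 10 pM–10 μM in duplicate, 1 hr at 4 °C. Filtration then scintillation counting; nonspecific binding defined with 10 μM unlabeled ligand.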

For a further test, the target named is mouse TAAR1 (Mus musculus (Mouse), UniProt Q923Y8). As to the kind of experiment: Radioligand binding assay on mouse TAAR1. As to conditions: read-out: Ki (μM) mouse. The procedure, abridged:
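Membranes were from HEK293 cells stably expressing mouse TAAR1. Compounds from 10 pM to 10 μM, in duplicate, competed with [3H]-(S)-4-[(ethyl-phenyl-amino)-methyl]-4,5-dihydro-oxazol-2-ylamine for 1 h at 4 °C. Nonspecific binding was defined with 10 μM unlabelled ligand, and bound radioactivity was read by filtration and scintillation.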

Setting [1] is: mouse TAAR1, HEK-293 membranes, first value of cell mouse/rat.
The mark [2] stands for this setting: rat TAAR1, HEK-293 membranes, second value of cell mouse/rat.

The structures appear in SMILES notation. Structures can show the parent of a compound that is named as a salt. Where two headings read alike, the source gives them in different places.

Sequence of rat TAAR1 (Q923Y9 whole entry): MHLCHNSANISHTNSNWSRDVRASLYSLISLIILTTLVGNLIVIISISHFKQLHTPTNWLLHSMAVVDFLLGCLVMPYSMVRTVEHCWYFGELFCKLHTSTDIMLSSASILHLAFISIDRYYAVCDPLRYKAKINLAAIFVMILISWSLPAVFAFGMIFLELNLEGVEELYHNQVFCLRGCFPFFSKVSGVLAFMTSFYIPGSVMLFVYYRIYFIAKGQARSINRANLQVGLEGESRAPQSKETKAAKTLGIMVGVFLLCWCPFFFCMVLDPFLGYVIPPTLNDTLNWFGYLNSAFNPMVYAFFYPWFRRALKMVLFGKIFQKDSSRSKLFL
Sequence of mouse TAAR1 (Q923Y8 whole entry): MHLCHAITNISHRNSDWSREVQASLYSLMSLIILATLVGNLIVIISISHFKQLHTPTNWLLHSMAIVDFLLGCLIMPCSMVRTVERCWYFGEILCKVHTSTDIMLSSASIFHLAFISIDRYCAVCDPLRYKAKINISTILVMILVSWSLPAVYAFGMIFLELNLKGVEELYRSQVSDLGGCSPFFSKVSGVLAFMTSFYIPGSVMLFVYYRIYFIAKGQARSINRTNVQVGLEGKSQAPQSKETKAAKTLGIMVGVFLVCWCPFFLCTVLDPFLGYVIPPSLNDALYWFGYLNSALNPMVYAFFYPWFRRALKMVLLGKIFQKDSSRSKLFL

As for `O=C(Nc1ccc([C@H]2CCCNC2)cc1)c1ccc(OCC(F)(F)F)nc1` [Example 223, (R)—N-(4-(Piperidin-3-yl)phenyl)-6-(2,2,2-trifluoroethoxy)nicotinamide hydrochloride], the figures for the Ki on rat TAAR1 and on mouse TAAR1 (setting [1]) were 0.0018 µM and 0.0016 µM, respectively.

With `O=C(Nc1ccc([C@@H]2CCCNC2)cc1)c1ccc(OCC(F)(F)F)nc1` [Example 224, (S)—N-(4-(Piperidin-3-yl)phenyl)-6-(2,2,2-trifluoroethoxy)nicotinamide hydrochloride], the Ki on rat TAAR1 is 0.0029 µM; on mouse TAAR1 (setting [1]), 0.051 µM.

With `Cc1ccc(C(=O)Nc2ccc([C@@H]3CCCNC3)cc2)cc1Cl` [Example 225, (S)-3-Chloro-4-methyl-N-(4-(piperidin-3-yl)phenyl)benzamide hydrochloride], the Ki at rat TAAR1 (setting [2]) was determined as 0.0006 µM; at mouse TAAR1, 0.0189 µM.

As for `Cc1cc(C(=O)Nc2ccc([C@@H]3CCCNC3)cc2)ccc1Cl` [Example 226, (S)-4-Chloro-3-methyl-N-(4-(piperidin-3-yl)phenyl)benzamide hydrochloride], the Ki on rat TAAR1 came to 0.001 µM; on mouse TAAR1, 0.0555 µM.

Take `Cc1ccc(C(=O)Nc2ccc([C@@H]3CCCNC3)cc2)cc1C` [Example 227, (S)-3,4-Dimethyl-N-(4-(piperidin-3-yl)phenyl)benzamide hydrochloride]: the figures for the Ki on rat TAAR1 (setting [2]) and on mouse TAAR1 were 0.0012 µM and 0.177 µM, respectively.

Consider `O=C(Nc1ccc([C@@H]2CNCCO2)cc1)c1ccc(Cl)cc1F` [Example 229, (R)-4-Chloro-2-fluoro-N-(4-(morpholin-2-yl)phenyl)benzamide hydrochloride], for which the Ki at rat TAAR1 (setting [2]) amounted to 0.0019 µM; at mouse TAAR1, 0.0218 µM.

`O=C(Nc1ccc([C@@H]2CCCNC2)cc1)c1cccc(C(F)(F)F)c1` [Example 234, (S)—N-(4-(Piperidin-3-yl)phenyl)-3-(trifluoromethyl)benzamide hydrochloride]: the Ki on rat TAAR1 is 0.001 µM; on mouse TAAR1, 0.0217 µM.

Consider `O=C(COc1ccc(Cl)cc1)Nc1ccc([C@@H]2CCCNC2)cc1` [Example 235, (S)-2-(4-Chlorophenoxy)-N-(4-(piperidin-3-yl)phenyl)acetamide hydrochloride], for which the Ki was found to be 0.0006 µM at rat TAAR1 (setting [2]) and 0.0334 µM on mouse TAAR1.

`CSc1ccc(C(=O)Nc2ccc([C@@H]3CCCNC3)cc2)cc1` [Example 236, (S)-4-(Methylthio)-N-(4-(piperidin-3-yl)phenyl)benzamide hydrochloride]: the Ki turned out to be 0.0014 µM at rat TAAR1 (setting [2]) and 0.214 µM on mouse TAAR1 (setting [1]).

As for `CCSc1ccc(C(=O)Nc2ccc([C@@H]3CCCNC3)cc2)cc1` [Example 237, (S)-4-(Ethylthio)-N-(4-(piperidin-3-yl)phenyl)benzamide hydrochloride], the Ki on rat TAAR1 (setting [2]) came out at 0.0008 µM; on mouse TAAR1 (setting [1]), 0.0677 µM.

As to `O=C(Nc1ccc([C@@H]2CCCNC2)cc1)c1cnc(Cl)cn1` [Example 238, 5-Chloro-pyrazine-2-carboxylic acid ((S)-4-piperidin-3-yl-phenyl)-amide hydrochloride], the Ki on rat TAAR1 (setting [2]) is 0.0056 µM; at mouse TAAR1, 1.12 µM.

With `O=C(Nc1ccc([C@H]2CCCNC2)cc1)c1cnc(Cl)cn1` [Example 239, 5-Chloro-pyrazine-2-carboxylic acid ((R)-4-piperidin-3-yl-phenyl)-amide hydrochloride], the Ki at rat TAAR1 (setting [2]) was found to be 0.0085 µM; on mouse TAAR1, 0.0396 µM.

For the molecule `O=C(Nc1ccc([C@@H]2CCCNC2)cc1)OCc1ccc(Cl)cc1` [Example 240, (S)-4-chlorobenzyl 4-(piperidin-3-yl)phenylcarbamate hydrochloride], the Ki at rat TAAR1 (setting [2]) stood at 0.0009 µM; at mouse TAAR1 (setting [1]), 0.0146 µM.

`O=C(Nc1ccc([C@@H]2CCCNC2)cc1)c1ccc(C(F)(F)F)nc1` [Example 242, (S)—N-(4-(Piperidin-3-yl)phenyl)-6-(trifluoromethyl)nicotinamide hydrochloride]: the Ki at rat TAAR1 was 0.0089 µM; on mouse TAAR1, 0.037 µM.

With `Cc1ccc(C(=O)Nc2ccc([C@@H]3CCCNC3)cc2)cn1` [Example 243, (S)-6-Methyl-N-(4-(piperidin-3-yl)phenyl)nicotinamide hydrochloride], the values for the Ki at rat TAAR1 (setting [2]) and on mouse TAAR1 (setting [1]) were 0.0062 µM and 2.12 µM, respectively.

Turning to `CSc1ccc(C(=O)Nc2ccc([C@@H]3CCCNC3)cc2)cn1` [Example 244, (S)-6-(Methylthio)-N-(4-(piperidin-3-yl)phenyl)nicotinamide hydrochloride], the results for the Ki on rat TAAR1 (setting [2]) and on mouse TAAR1 were 0.0049 µM and 0.268 µM, respectively.

Consider `CCSc1cccc(C(=O)Nc2ccc([C@@H]3CCCNC3)cc2)c1` [Example 246, (S)-3-(Ethylthio)-N-(4-(piperidin-3-yl)phenyl)benzamide], for which the Ki amounted to 0.0012 µM on rat TAAR1 (setting [2]) and 0.0151 µM at mouse TAAR1 (setting [1]).

As for `O=C(Nc1ccc([C@@H]2CCCNC2)cc1)c1cnc(C(F)(F)F)cn1` [Example 248, (S)—N-(4-(Piperidin-3-yl)phenyl)-5-(trifluoromethyl)pyrazine-2-carboxamide hydrochloride], the Ki on rat TAAR1 (setting [2]) came to 0.0143 µM; at mouse TAAR1, 0.188 µM.

Regarding `O=C(Nc1ccc([C@@H]2CCCNC2)cc1)c1cnc(OCC(F)(F)F)cn1` [Example 250, (S)—N-(4-(Piperidin-3-yl)phenyl)-5-(2,2,2-trifluoroethoxy)pyrazine-2-carboxamide hydrochloride], the Ki amounted to 0.0056 µM on rat TAAR1 (setting [2]) and 0.288 µM at mouse TAAR1 (setting [1]).

Take `O=C(Nc1ccc([C@@H]2CCCNC2)cc1)c1cnc(Br)cn1` [Example 251, (S)-5-Bromo-N-(4-(piperidin-3-yl)phenyl)pyrazine-2-carboxamide 2,2,2-trifluoroacetate]: the Ki at rat TAAR1 stood at 0.0054 µM; at mouse TAAR1 (setting [1]), 0.48 µM.

Take `O=C(Nc1ccc([C@@H]2CCCNC2)cc1)c1ccc(Br)nc1` [Example 252, (S)-6-Bromo-N-(4-(piperidin-3-yl)phenyl)nicotinamide 2,2,2-trifluoroacetate]: the Ki amounted to 0.0044 µM on rat TAAR1 (setting [2]) and 0.0783 µM at mouse TAAR1 (setting [1]).

As to `Cc1cccc(C(=O)Nc2ccc([C@@H]3CCCNC3)cc2)c1` [Example 253, (S)-3-Methyl-N-(4-(piperidin-3-yl)phenyl)benzamide], the values for the Ki on rat TAAR1 (setting [2]) and at mouse TAAR1 were 0.0035 µM and 0.36 µM, respectively.

Consider `CCOc1ccc(C(=O)Nc2ccc([C@@H]3CCCNC3)cc2)cn1` [Example 256, (S)-6-Ethoxy-N-(4-(piperidin-3-yl)phenyl)nicotinamide], for which the inhibitory constant (Ki) amounted to 0.012 µM on rat TAAR1 (setting [2]) and 1.17 µM on mouse TAAR1 (setting [1]).

For `CSc1cnc(C(=O)Nc2ccc([C@@H]3CCCNC3)cc2)cn1` [Example 257, (S)-5-(Methylthio)-N-(4-(piperidin-3-yl)phenyl)pyrazine-2-carboxamide], the Ki turned out to be 0.004 µM on rat TAAR1 (setting [2]) and 0.786 µM at mouse TAAR1 (setting [1]).

On to `O=C(Nc1ccc([C@@H]2CCCNC2)cc1)OC1Cc2ccccc2C1` [Example 258, (S)-2,3-Dihydro-1H-inden-2-yl 4-(piperidin-3-yl)phenylcarbamate 2,2,2-trifluoroacetate], for which the values for the Ki at rat TAAR1 (setting [2]) and at mouse TAAR1 were 0.0062 µM and 0.0225 µM, respectively.

For `CSc1cccc(C(=O)Nc2ccc([C@@H]3CCCNC3)cc2)c1` [Example 259, (S)-3-(Methylthio)-N-(4-(piperidin-3-yl)phenyl)benzamide], the Ki came out at 0.0009 µM on rat TAAR1 and 0.044 µM on mouse TAAR1 (setting [1]).

With `Cc1ccc(C(=O)Nc2ccc([C@H]3CCCNC3)cc2)cc1C` [Example 260, (R)-3,4-Dimethyl-N-(4-(piperidin-3-yl)phenyl)benzamide hydrochloride], the Ki is 0.0012 µM on rat TAAR1 (setting [2]) and 0.016 µM at mouse TAAR1.

Turning to `O=C(Nc1ccc([C@H]2CCCNC2)cc1)c1cccc(C(F)(F)F)c1` [Example 261, (R)—N-(4-(Piperidin-3-yl)phenyl)-3-(trifluoromethyl)benzamide hydrochloride], the Ki at rat TAAR1 came out at 0.0015 µM; on mouse TAAR1 (setting [1]) it was 0.0027 µM.

For `O=C(Nc1ccc([C@@H]2CNCCO2)cc1)c1cccc(Cl)c1` [Example 262, (R)-3-Chloro-N-(4-(morpholin-2-yl)phenyl)benzamide hydrochloride], the Ki was found to be 0.0013 µM at rat TAAR1 and 0.0052 µM on mouse TAAR1.

As for `O=C(Nc1ccc([C@H]2CNCCO2)cc1)c1cccc(Cl)c1` [Example 263, (S)-3-Chloro-N-(4-(morpholin-2-yl)phenyl)benzamide hydrochloride], the figures for the inhibition constant Ki at rat TAAR1 and at mouse TAAR1 were 0.0011 µM and 0.0152 µM, respectively.

In the case of `Cc1ccc(C(=O)Nc2ccc([C@H]3CCCNC3)cc2)cn1` [Example 264, (R)-6-Methyl-N-(4-(piperidin-3-yl)phenyl)nicotinamide hydrochloride], the values for the Ki at rat TAAR1 (setting [2]) and at mouse TAAR1 (setting [1]) were 0.0143 µM and 0.297 µM, respectively.

Take `O=C(Nc1ccc([C@H]2CCCNC2)cc1)c1ccc(C(F)(F)F)nc1` [Example 265, (R)—N-(4-(Piperidin-3-yl)phenyl)-6-(trifluoromethyl)nicotinamide hydrochloride]: the Ki at rat TAAR1 was 0.0059 µM; on mouse TAAR1 it was 0.0209 µM.

Turning to `CSc1ccc(C(=O)Nc2ccc([C@@H]3CNCCO3)cc2)cc1` [Example 266, (R)-4-(Methylthio)-N-(4-(morpholin-2-yl)phenyl)benzamide hydrochloride], the Ki was determined as 0.0012 µM at rat TAAR1 (hydrochloride) and 0.0163 µM on mouse TAAR1 (mouse TAAR1, HEK-293 membranes, first value of cell mouse/rat, hydrochloride).

As for `O=C(Nc1ccc([C@@H]2CNCCO2)cc1)c1ccc(OCC(F)(F)F)nc1` [Example 268, (R)—N-(4-(Morpholin-2-yl)phenyl)-6-(2,2,2-trifluoroethoxy)nicotinamide hydrochloride], the Ki at rat TAAR1 was 0.0024 µM; at mouse TAAR1, 0.002 µM.

Broadly, the Ki is the equilibrium dissociation constant of an inhibitor or competing ligand from its target.
